Legend:
Assay type in all cases: in vivo
[1] = tested on: Aedes aegypti (Yellow Fever Mosquito); test: Aedes aegypti adult contact test on dried deposits; conditions: application rate 200 ppm in ethanol, adult females, after 48 h and/or 24 h
Experimental: Test solutions, at an application rate of 200 ppm in ethanol, were applied to 12 well tissue culture plates. Once the deposits were dry, five, two to five day old adult female Aedes aegypti were added to each well, and sustained with a 10% sucrose solution in a cotton wool plug. Assessment of knockdown was made one hour after introduction, and mortality was assessed at 24 and 48 hours after introduction.
The following compounds gave at least 80% control of Aedes aegypti after 48 h and/or 24 h: […]

[2] = tested on: Spodoptera littoralis (Egyptian Cotton Leaf Worm); test: Spodoptera littoralis, uptake by lettuce roots from agar; conditions: 144 h, test rate 12.5 ppm, compound absorbed by lettuce roots, 6 days after infestation, read-out: effect in at least one of the three categories (mortality, anti-feeding, or growth inhibition)
Description: Test compounds were applied by pipette from 10′000 ppm DMSO stock solutions into 24-well plates and mixed with agar. Lettuce seeds were placed onto the agar and the multi well plate was closed by another plate which contained also agar. After 7 days the compound was absorbed by the roots and the lettuce grew into the lid plate. The lettuce leaves were then cut off into the lid plate. Spodoptera eggs were pipetted through a plastic stencil onto a humid gel blotting paper and the lid plate was closed with it. The samples were assessed for mortality, anti-feedant effect and growth inhibition in comparison to untreated samples 6 days after infestation.
The following compounds gave an effect of at least 80% in at least one of the three categories (mortality, anti-feeding, or growth inhibition) at a test rate of 12.5 ppm: A3, A4, A5, A6, A8, A10, B3, B4, B5 and C2.

[3] = tested on: Euschistus heros (Neotropical Brown Stink Bug); test: Euschistus heros on soybean leaves, spray; conditions: 120 h, application rate 200 ppm, N2 nymphs on soybean leaves, 5 days after infestation, read-out: effect in at least one of the two categories (mortality or growth inhibition)
Experimental: Soybean leaves on agar in 24-well microtiter plates were sprayed with aqueous test solutions prepared from 10′000 ppm DMSO stock solutions. After drying the leaves were infested with N2 nymphs. The samples were assessed for mortality and growth inhibition in comparison to untreated samples 5 days after infestation.
(§1) The following compounds gave an effect of at least 80% in at least one of the two categories (mortality or growth inhibition) at an application rate of 200 ppm: […]

[4] = tested on: Tetranychus urticae (Two-Spotted Spider Mite); test: Tetranychus urticae feeding/contact activity on bean leaf discs; conditions: foliar, 192 h
Experimental: Feeding/contact activity Bean leaf discs on agar in 24-well microtiter plates were sprayed with aqueous test solutions prepared from 10′000 ppm DMSO stock solutions. After drying the leaf discs were infested with a mite population of mixed ages. The samples were assessed for mortality on mixed population (mobile stages) 8 days after infestation.

[5] = tested on: Diabrotica Balteata (Corn Root Worm); test: Diabrotica balteata on maize sprouts, spray; conditions: 96 h, application rate 200 ppm, L2 larvae on maize sprouts, 4 days after infestation, read-out: effect in at least one of the two categories (mortality or growth inhibition)
Experimental: Maize sprouts placed onto an agar layer in 24-well microtiter plates were treated with aqueous test solutions prepared from 10′000 ppm DMSO stock solutions by spraying. After drying, the plates were infested with L2 larvae (6 to 10 per well). The samples were assessed for mortality and growth inhibition in comparison to untreated samples 4 days after infestation.
as §1

[6] = tested on: Plutella xylostella (Diamond Back Moth); test: Plutella xylostella on artificial diet; conditions: 120 h, application rate 200 ppm, L2 larvae on artificial diet, 5 days after infestation, read-out: effect in at least one of the two categories (mortality or growth inhibition)
Experimental: 24-well microtiter plates with artificial diet were treated with aqueous test solutions prepared from 10′000 ppm DMSO stock solutions by pipetting. After drying, the plates were infested with L2 larvae (10 to 15 per well). The samples were assessed for mortality and growth inhibition in comparison to untreated samples 5 days after infestation.
as §1

[7] = tested on: Spodoptera littoralis (Egyptian Cotton Leaf Worm); test: Spodoptera littoralis on cotton leaf discs, spray; conditions: foliar, 72 h, application rate 200 ppm, L1 larvae on cotton leaf discs, 3 days after infestation
Experimental: Cotton leaf discs were placed onto agar in 24-well microtiter plates and sprayed with aqueous test solutions prepared from 10′000 ppm DMSO stock solutions. After drying the leaf discs were infested with five L1 larvae. The samples were assessed for mortality, anti-feeding effect, and growth inhibition in comparison to untreated samples 3 days after infestation. Control of Spodoptera littoralis by a test sample is given when at least one of the categories mortality, anti-feedant effect, and growth inhibition is higher than the untreated sample.

[8] = tested on: Myzus persicae (Green Peach Aphid); test: Myzus persicae intrinsic activity (sucrose solution, Parafilm); conditions: 120 h, test rate 12 ppm, 5 days after infestation
Experimental: Intrinsic activity Test compounds prepared from 10′000 ppm DMSO stock solutions were applied by pipette into 24-well microtiter plates and mixed with sucrose solution. The plates were closed with a stretched Parafilm. A plastic stencil with 24 holes was placed onto the plate and infested pea seedlings were placed directly on the Parafilm. The infested plate was closed with a gel blotting paper and another plastic stencil and then turned upside down. The samples were assessed for mortality 5 days after infestation.

[9] = tested on: Myzus persicae (Green Peach Aphid); test: Myzus persicae feeding/contact activity on sunflower leaf discs; conditions: foliar, 144 h, application rate 200 ppm, aphid population of mixed ages on sunflower leaf discs, 6 days after infestation
Experimental: Feeding/Contact activity Sunflower leaf discs were placed onto agar in a 24-well microtiter plate and sprayed with aqueous test solutions prepared from 10′000 ppm DMSO stock solutions. After drying, the leaf discs were infested with an aphid population of mixed ages. The samples were assessed for mortality 6 days after infestation.

[10] = tested on: Bemisia tabaci (Cotton White Fly); test: Bemisia tabaci feeding/contact activity on cotton leaf discs; conditions: foliar, 144 h, application rate 200 ppm, adult white flies on cotton leaf discs, 6 days after incubation
Experimental: Feeding/contact activity Cotton leaf discs were placed on agar in 24-well microtiter plates and sprayed with aqueous test solutions prepared from 10′000 ppm DMSO stock solutions. After drying the leaf discs were infested with adult white flies. The samples were checked for mortality 6 days after incubation.

CCSc1c(-c2nc3cc(SC(F)(F)F)cnc3n2C)sc2cc(Br)ccc12 [Compound A3, 2-(6-bromo-3-ethylsulfanyl-benzothiophen-2-yl)-3-methyl-6-(trifluoromethylsulfanyl)imidazo[4,5-b]pyridine]
≥ 80%: pest or weed control at 200 ppm [1] | percent effect (mortality, anti-feeding or growth inhibition) at 12.5 ppm [2] | percent effect (mortality or growth inhibition) at 200 ppm [3] | mortality at 200 ppm [4] | percent effect (mortality or growth inhibition) at 200 ppm [5] | percent effect (mortality or growth inhibition) at 200 ppm [6] | percent control (mortality, anti-feedant effect or growth inhibition) at 200 ppm [7]

CCSc1c(-c2nc3cnc(C(F)(F)F)cc3n2C)sc2ccccc12 [Compound B1, 2-(3-ethylsulfanylbenzothiophen-2-yl)-1-methyl-6-(trifluoromethyl)imidazo[4,5-c]pyridine]
≥ 80%: mortality at 12 ppm [8] | mortality at 200 ppm [9] | percent effect (mortality or growth inhibition) at 200 ppm [5] | percent effect (mortality or growth inhibition) at 200 ppm [6]

CCSc1c(-c2nc3cc(C(F)(F)F)ncc3n2C)sc2cc(C(F)(F)F)ccc12 [Compound B3, 2-[3-ethylsulfanyl-6-(trifluoromethyl)benzothiophen-2-yl]-3-methyl-6-(trifluoromethyl)imidazo[4,5-c]pyridine]
≥ 80%: pest or weed control at 200 ppm [1] | percent effect (mortality, anti-feeding or growth inhibition) at 12.5 ppm [2] | percent effect (mortality or growth inhibition) at 200 ppm [3] | mortality at 12 ppm [8] | percent effect (mortality or growth inhibition) at 200 ppm [5] | percent effect (mortality or growth inhibition) at 200 ppm [6] | percent control (mortality, anti-feedant effect or growth inhibition) at 200 ppm [7]

CCS(=O)(=O)c1c(-c2nc3cc(SC(F)(F)F)ncc3n2C)sc2cc(Br)ccc12 [Compound B5, 2-(6-bromo-3-ethylsulfonyl-benzothiophen-2-yl)-3-methyl-6-(trifluoromethylsulfanyl)imidazo[4,5-c]pyridine]
≥ 80%: pest or weed control at 200 ppm [1] | percent effect (mortality, anti-feeding or growth inhibition) at 12.5 ppm [2] | percent effect (mortality or growth inhibition) at 200 ppm [3] | mortality at 200 ppm [9] | mortality at 200 ppm [10] | percent effect (mortality or growth inhibition) at 200 ppm [5] | percent effect (mortality or growth inhibition) at 200 ppm [6] | percent control (mortality, anti-feedant effect or growth inhibition) at 200 ppm [7]
